This experiment addresses T1, Pantetheinase (Homo sapiens, UniProt O95497).
T1 sequence (O95497 whole entry): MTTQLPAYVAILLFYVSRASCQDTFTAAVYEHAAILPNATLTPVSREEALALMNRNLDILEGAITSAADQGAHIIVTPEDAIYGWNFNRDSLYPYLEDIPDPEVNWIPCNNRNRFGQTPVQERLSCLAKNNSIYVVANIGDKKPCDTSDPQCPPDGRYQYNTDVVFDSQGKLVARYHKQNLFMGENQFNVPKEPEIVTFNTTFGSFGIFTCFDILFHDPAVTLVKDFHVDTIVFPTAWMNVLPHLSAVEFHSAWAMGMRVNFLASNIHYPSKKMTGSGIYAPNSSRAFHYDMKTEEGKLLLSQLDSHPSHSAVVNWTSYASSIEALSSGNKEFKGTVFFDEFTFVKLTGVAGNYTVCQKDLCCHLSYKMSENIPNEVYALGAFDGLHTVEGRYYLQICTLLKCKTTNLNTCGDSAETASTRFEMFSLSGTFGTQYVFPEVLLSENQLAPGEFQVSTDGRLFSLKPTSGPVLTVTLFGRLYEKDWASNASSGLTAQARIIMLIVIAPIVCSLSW
The experiment can be described thus: VNN1 Inhibitor Binding Assay. The method, then:
5 μL of 3× (45 μM) of Pantothenate-AMC to achieve final concentrations of 15 μM (0.25% DMSO final) were added in a 384 well assay plate followed by the addition of 5 μL of 3× the desired concentration of the tested compounds (Compound 1; Compound 2; and RR6) in 0.75% DMSO to designated wells (0.25% of DMSO final). The range of the compound concentrations tested was 10, 3.33, 1.11, 0.37, 0.12, 0.04, 0.01, 0.0046, 0.001, and 0.0005 μM. 5 μL of 0.75% DMSO were also added to positive and negative control wells.5 μL of 1.4 ng/μL Vanain-1 was added to the assay plate to achieve a final amount of 7 ng/well, and covered with plate sealer. Another 5 μL of assay buffer was added to negative controls and the assay plate was then centrifuged briefly (1000 rpm for 30 s) in a plate centrifuge. The assay plate was incubated in the dark for 20 minutes at room temperature and immediately read on an Envision 2105, PerkinElmer multimode plate reader.The fluorescence read was captured at excitation wavelength of 355 nm and emission wavelength of 460 nm.

pIC50: −log10 of the molar value. Bounds are passed on as bounds.

Molecule `CC(=O)NCCN1Cc2nc(NCc3cncc(C#N)c3)ccc2C1=O` [US20250066353, Compound 41] gave a negative logarithm of the IC50 (pIC50) of less than 5.00.

For the origin of these results see BindingDB's records for patent US20250066353 (Athos Therapeutics, 2025).
